US8853412B2, “Pyrrolidinone derivatives as GPR119 modulators for the treatment of diabetes, obesity, dyslipidemia and related disorders” (Sanofi, priority 2012, dated 2014)

Molecular target: T1, human GPR119 (Homo sapiens, UniProt Q8TDV5)
T1 construct: expressed in transfected cells; host or cells: HEK-293 cell line stably expressing recombinant GPR119
T1 sequence (Q8TDV5 1-335): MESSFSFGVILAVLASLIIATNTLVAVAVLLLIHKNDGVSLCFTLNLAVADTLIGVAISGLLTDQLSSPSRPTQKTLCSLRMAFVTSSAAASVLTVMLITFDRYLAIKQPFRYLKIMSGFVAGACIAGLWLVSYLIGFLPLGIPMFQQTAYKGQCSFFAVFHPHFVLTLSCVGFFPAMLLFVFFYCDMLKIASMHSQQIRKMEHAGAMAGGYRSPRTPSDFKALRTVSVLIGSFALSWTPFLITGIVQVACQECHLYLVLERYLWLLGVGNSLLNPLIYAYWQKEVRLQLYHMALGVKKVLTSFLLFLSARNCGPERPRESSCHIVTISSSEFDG
Assay: Functional cellular assay measuring GPR119-mediated cAMP release (HTRF), HEK-293 cells stably expressing recombinant GPR119
Format: cell-based
Conditions: cell line expressing human GPR119; cAMP response, 30 minutes at room temperature

First: O=C1CCc2c(Cl)cc(N3CC[C@@H](Oc4ccc(OCC5CC5)nc4)C3=O)cc21 [Example 4-01]
Second: Cc1cc(N2CC[C@@H](Oc3ccc(OCC4CC4)nc3)C2=O)cc2c1CCC2=O [Example 4-02]
The EC50 of the first is 4.4-fold lower: 64 nM for the first, 283 nM for the second.

First: N#Cc1cc(N2CC[C@@H](Oc3ccc(OCC4CC4)nc3)C2=O)cc2c1CCC2=O [Example 4-03]
Second: N#Cc1cc(O[C@@H]2CCN(c3cc(F)c4c(c3)C(=O)CC4)C2=O)cnc1OCC1CC1 [Example 8-05]
The EC50 of the first is 2.5-fold lower: 97 nM for the first, 242 nM for the second. The first is the more potent here.

First: O=C1CCc2c(F)cc(N3CC[C@@H](Oc4ccnc(OCCC5CC5)c4)C3=O)cc21 [Example 5-01]
Second: O=C1CCc2c(F)cc(N3CC[C@@H](Oc4ccnc(OCC5CC5)c4)C3=O)cc21 [Example 5-03]
The EC50 of the first is 1.8-fold lower: 22 nM for the first, 40 nM for the second. The first is the more potent here.

Compared with `CCCCOc1cc(O[C@@H]2CCN(c3cc(F)c4c(c3)C(=O)CC4)C2=O)ccn1` [Example 5-02], `CCCCCOc1cc(O[C@@H]2CCN(c3cc(F)c4c(c3)C(=O)CC4)C2=O)ccn1` [Example 5-06] is 5.9-fold lower in EC50: 190 nM for the first, 32 nM for the second. The second is the more potent here.

Going from `CCOc1cc(O[C@@H]2CCN(c3cc(F)c4c(c3)C(=O)CC4)C2=O)ccn1` [Example 5-04] to `CCCOc1cc(O[C@@H]2CCN(c3cc(F)c4c(c3)C(=O)CC4)C2=O)ccn1` [Example 5-05], the EC50 falls from 169 nM to 65 nM (2.6-fold).

First: O=C1CCc2c(F)cc(N3CC[C@@H](Oc4ccnc(OCC(F)(F)F)c4)C3=O)cc21 [Example 5-07]
Second: COCCCOc1cc(O[C@@H]2CCN(c3cc(F)c4c(c3)C(=O)CC4)C2=O)ccn1 [Example 5-09]
The EC50 of the first is 4.2-fold lower: 30 nM for the first, 126 nM for the second.

Compared with `CC(C)Oc1cc(O[C@@H]2CCN(c3cc(F)c4c(c3)C(=O)CC4)C2=O)ccn1` [Example 5-08], `O=C1CCc2c(F)cc(N3CC[C@@H](Oc4ccnc(OC5CCC5)c4)C3=O)cc21` [Example 5-10] is 2.6-fold lower in EC50: 72 nM for the first, 28 nM for the second. The second is the more potent here.

Going from `O=C1CCc2c(F)cc(N3CC[C@@H](Oc4ccc(Oc5ccc(F)cn5)nc4)C3=O)cc21` [Example 6-01] to `O=C1CCc2c(F)cc(N3CC[C@@H](Oc4ccc(OC5CC5)nc4)C3=O)c(F)c21` [Example 9-02], the EC50 falls from 216 nM to 69 nM (3.1-fold). The second is the more potent here.

Going from `O=C1CCc2c(F)cc(N3CC[C@@H](Oc4ccc(OCC5CC5)[n+]([O-])c4)C3=O)cc21` [Example 7-01] to `O=C(O)c1cc(O[C@@H]2CCN(c3cc(F)c4c(c3)C(=O)CC4)C2=O)cnc1OCC1CC1` [Example 8-02], the EC50 falls from 5590 nM to 2690 nM (2.1-fold).

Compared with `COC(=O)c1cc(O[C@@H]2CCN(c3cc(F)c4c(c3)C(=O)CC4)C2=O)cnc1OCC1CC1` [Example 8-01], `CN(C)C(=O)c1cc(O[C@@H]2CCN(c3cc(F)c4c(c3)C(=O)CC4)C2=O)cnc1OCC1CC1` [Example 8-03] is higher in EC50: 64 nM for the first, over 100000 nM for the second.

Going from `CCCc1cc(O[C@@H]2CCN(c3cc(F)c4c(c3)C(=O)CC4)C2=O)cnc1OCC1CC1` [Example 8-04] to `O=C1CCc2c(F)cc(N3CC[C@@H](Oc4ccc(OCC5CC5)nc4)C3=O)c(F)c21` [Example 9-01], the EC50 falls from 109 nM to 19 nM (5.7-fold). The second is the more potent here.

In the case of `O=C1CCc2ccc(N3CC[C@@H](Oc4ccc(OCC5CC5)nc4)C3=O)c(F)c21` [Example 9-03], the EC50 is reported as 46 nM.
